How the values were obtained:
[1] = system: Meis2 enhancer and promoter sites; test: ChIP-qPCR of Ash1l occupancy at Meis2 promoter and enhancers; format: cell-based, mouse; details: for Ash1l occupancy, Meis2 Enh 1 / Ash1l occupancy, Meis2 Enh 2 / Ash1l occupancy, Meis2 Enh 3 / Ash1l occupancy, Meis2 promoter: Ash1l ChIP, + RA
Method: J1 ESCs were cultured feeder free on 0.1% gelatin-coated plates in ESC culture medium (Dulbecco’s modified Eagle’s medium (Hi-glucose), supplemented with 15% fetal bovine serum (Corning), non-essential amino acids, L-glutamine, β-mercaptoethanol, 1% penicillin/streptomycin, sodium pyruvate and 1000 U/mL leukemia inhibitory factor (LIF) (Ebioscience, 34-8521-82). For embryoid body formation, mouse ES cells were dissociated from gelatin-coated plates and seeded on non-adherent cell culture dishes (Greiner) at a density of 1 × 10^5 cells/mL in 10 mL of differentiation medium (ESC culture medium without LIF). Media was exchanged every 48 h and cells were collected at indicated time course. For neuronal differentiation, cells were plated on gelatin-coated plates at a density of 1×10^4 cells/cm^2 in ESC culture medium. The following day, medium was exchanged to differentiation medium +1 μM retinoic acid (RA) (Sigma) to induce differentiation. Medium was exchanged every 48 h for indicated time course. Total RNA was extracted with RNeasy Mini Kit (QIAGEN) and reverse transcribed using Superscript III Reverse Transcriptase (Life Technologies). qPCR analysis was performed using Brilliant III Ultra Fast SYBR Green QPCR Master Mix (Agilent Technologies). Gene expression data were normalized against Hprt/Gapdh and represented as fold change relative to the control. The relative expression values are shown as mean ± S.D. For ChIP-qPCR, chromatin occupancy was calculated as the ratio of the amount of immunoprecipitated DNA to that of the input sample (% input).

[2] = system: Ash1l; test: Western blot of Ash1l protein expression level; format: cell-based, mouse; details: retinoic acid for 6 days
[3] = system: mouse ES cells; test: RNA-seq analysis of differentiated mouse ES cells; format: cell-based; details: RNA-seq data of ref 19
Method: RNA-seq data reported by Yin et al.[19] was analyzed to compare RNA from undifferentiated mouse ES cells to RNA from mouse ES cells differentiated under various conditions, as described in Fig. 1. Reads were filtered using Trimmomatic v0.40 and mapped to the mouse reference genome (mm9) by TopHat (version 2.0.10). Fragments were enumerated to the UCSC reference transcriptome using the hseq-count function from the HTSeq package (version 0.6.0). Genes with <5 fragments were filtered out and gene expression changes (FC > 1.5, FDR < 0.01) were analyzed using DESeq2 (v1.42.1), with undifferentiated cells as controls. Heatmaps were generated using either the ggplot2 or pheatmap packages with z-score normalization.
Supplementary Figure 1. Analysis of RNA-seq data reported by Yin et al. (ref. 19),
comparing RNA from undifferentiated mouse ES cells to RNA from mouse ES cells
differentiated under multiple conditions (see Figure 1). Gene expression changes (FC >
1.5, FDR < 0.01 ) in 4-day RA differentiated cells were identified using DESeq2, with
undifferentiated cells as controls.
after RA treatment. Related to Figure 1.
(1 picture or pasted object on this page, not shown here)

[4] = system: mouse ES cells; test: qPCR of gene expression in mouse ES cells, RA-induced differentiation; format: cell-based; details: for HoxA9 relative expression / Neurog2 relative expression / Olig1 relative expression / Runx1 relative expression: + RA 2 days, qPCR
Method: J1 ESCs were cultured feeder free on 0.1% gelatin-coated plates in ESC culture medium (Dulbecco’s modified Eagle’s medium (Hi-glucose), supplemented with 15% fetal bovine serum (Corning), non-essential amino acids, L-glutamine, β-mercaptoethanol, 1% penicillin/streptomycin, sodium pyruvate and 1000 U/mL leukemia inhibitory factor (LIF) (Ebioscience, 34-8521-82). For embryoid body formation, mouse ES cells were dissociated from gelatin-coated plates and seeded on non-adherent cell culture dishes (Greiner) at a density of 1 × 10^5 cells/mL in 10 mL of differentiation medium (ESC culture medium without LIF). Media was exchanged every 48 h and cells were collected at indicated time course. For neuronal differentiation, cells were plated on gelatin-coated plates at a density of 1×10^4 cells/cm^2 in ESC culture medium. The following day, medium was exchanged to differentiation medium +1 μM retinoic acid (RA) (Sigma) to induce differentiation. Medium was exchanged every 48 h for indicated time course.
Total RNA was extracted with RNeasy Mini Kit (QIAGEN) and reverse transcribed using Superscript III Reverse Transcriptase (Life Technologies). qPCR analysis was performed using Brilliant III Ultra Fast SYBR Green QPCR Master Mix (Agilent Technologies). Gene expression data were normalized against Hprt/Gapdh and represented as fold change relative to the control. The relative expression values are shown as mean ± S.D. For ChIP-qPCR, chromatin occupancy was calculated as the ratio of the amount of immunoprecipitated DNA to that of the input sample (% input).
CRISPR/Cas9 mediated editing was performed essentially as described. The designed gRNA ([…]) was cloned into the pSpCas9(BB)-2A-GFP (PX458) plasmid (a gift from Feng Zhang) and miniprepped using standard DNA miniprep procedures (Qiagen). J1 mES cells were transfected with sgRNAs or empty vector with Lipofectamine 2000 (ThermoFisher). Transfected cells were isolated by FACS at the Mount Sinai Flow Cytometry Core facility, and a single cell was plated per well in 96-well plates. Cells were cultured for 2-3 weeks until single colonies were visible. Cells were harvested and DNA was extracted using the QuickExtract solution (Epibio). PCR was performed using the following primers: Ash1l, F:TAGAAAGTCTGCACGGGCG, R:[…], Nestin, F:[…], R:[…], HoxA9, F:[…], R: […], Pax6, F:[…], R:[…], Gata4, F: […], R: […], Sox7, F:[…], R:[…], Pou5f1, F:[…], R:CAGGGCTTTCATGTCCTGG, Brachyury, F:GAGAGCGCAGGGAAGAGC, R:[…], Nkx2-5, F:[…], R:[…].

Q: With `CC1=C(/C=C/C(C)=C/C=C/C(C)=C/C(=O)O)C(C)(C)CCC1` [RA, retinoic acid] as the compound, how does the “Ash1l occupancy, Meis2 Enh 1” value ([1]; replicate 1) read?
A: 0.01897 % input

Q: And the “Ash1l occupancy, Meis2 Enh 2” value ([1]; replicate 1)?
A: 0.04268 % input

Q: What about the “Ash1l occupancy, Meis2 Enh 3” value ([1]; replicate 1) of the same compound?
A: 0.02225 % input

Q: And the “Ash1l occupancy, Meis2 promoter” value ([1]; replicate 1)?
A: 0.06078 % input

Q: And the “Ash1l occupancy, Meis2 Enh 1” value ([1]; replicate 2)?
A: 0.02319 % input

Q: And the “Ash1l occupancy, Meis2 Enh 2” value ([1]; replicate 2)?
A: 0.04358 % input

Q: And the “Ash1l occupancy, Meis2 Enh 3” value ([1]; replicate 2)?
A: 0.02683 % input

Q: What about the “Ash1l occupancy, Meis2 promoter” value ([1]; replicate 2) of the same compound?
A: 0.06121 % input

Q: What about the “Ash1l occupancy, Meis2 Enh 1” value ([1]; replicate 3) of the same compound?
A: 0.01327 % input

Q: What about the “Ash1l occupancy, Meis2 Enh 2” value ([1]; replicate 3) of the same compound?
A: 0.04413 % input

Q: What about the “Ash1l occupancy, Meis2 Enh 3” value ([1]; replicate 3) of the same compound?
A: 0.02442 % input

Q: And the “Ash1l occupancy, Meis2 promoter” value ([1]; replicate 3)?
A: 0.05366 % input

Q: And the “Ash1l recruitment to promoter and enhancer sites of Meis2” value ([1]; RA-induced ESC differentiation, ChIP-qPCR)?
A: recruited to promoter and enhancer sites

Q: What about the “Ash1l protein expression level” value [2] of the same compound?
A: highest

Q: What about the Ash1l expression upregulation ([3]; 4 days RA differentiation, FDR < 0.01, vs undifferentiated) of the same compound?
A: 1.96 fold

Q: And the “expression of Nsd1, all Mll family genes and several Plc genes (Ezh1, Ring1, Cbx7/8)” value ([3]; RA differentiation)?
A: noticeably up-regulated

Q: And the “expression of Setd2, BRD2/3/4 and Ezh2” value ([3]; RA differentiation)?
A: down-regulated

Q: And the HoxA9 relative expression ([4]; WT mES cells, replicate 1)?
A: 83.8652

Q: What about the Neurog2 relative expression ([4]; WT mES cells, replicate 1) of the same compound?
A: 4.681

Q: What about the Olig1 relative expression ([4]; WT mES cells, replicate 1) of the same compound?
A: 5.04

Q: And the Runx1 relative expression ([4]; WT mES cells, replicate 1)?
A: 31.4139

Q: And the HoxA9 relative expression ([4]; WT mES cells, replicate 2)?
A: 95.0095

Q: What about the Neurog2 relative expression ([4]; WT mES cells, replicate 2) of the same compound?
A: 6.712

Q: And the Olig1 relative expression ([4]; WT mES cells, replicate 2)?
A: 5.327

Q: And the Runx1 relative expression ([4]; WT mES cells, replicate 2)?
A: 47.9458

Q: What about the HoxA9 relative expression ([4]; WT mES cells, replicate 3) of the same compound?
A: 128.89

Q: And the Neurog2 relative expression ([4]; WT mES cells, replicate 3)?
A: 11.2096

Q: What about the Olig1 relative expression ([4]; WT mES cells, replicate 3) of the same compound?
A: 5.4768

Q: What about the Runx1 relative expression ([4]; WT mES cells, replicate 3) of the same compound?
A: 42.0296

Q: And the “transcriptional expression of Ash1l” value ([4]; qPCR time course, RA-induced differentiation)?
A: dramatic and time-dependent increase

Q: And the “expression of HoxA9, Runx1, Neurog2, and Olig1 in CRISPR/Cas9 edited B7 clone” value ([4]; retinoic acid, two days)?
A: altered expression

Q: And the HoxA9 relative expression ([4]; ΔAsh1l B7 clone, replicate 1)?
A: 9.646

Q: And the Neurog2 relative expression ([4]; ΔAsh1l B7 clone, replicate 1)?
A: 28.3773

Q: And the Olig1 relative expression ([4]; ΔAsh1l B7 clone, replicate 1)?
A: 3.982

Q: And the Runx1 relative expression ([4]; ΔAsh1l B7 clone, replicate 1)?
A: 2.976

Q: What about the HoxA9 relative expression ([4]; ΔAsh1l B7 clone, replicate 2) of the same compound?
A: 8.282

Q: And the Neurog2 relative expression ([4]; ΔAsh1l B7 clone, replicate 2)?
A: 24.5333

Q: And the Olig1 relative expression ([4]; ΔAsh1l B7 clone, replicate 2)?
A: 4.037

Q: What about the Runx1 relative expression ([4]; ΔAsh1l B7 clone, replicate 2) of the same compound?
A: 2.4005

Q: What about the HoxA9 relative expression ([4]; ΔAsh1l B7 clone, replicate 3) of the same compound?
A: 11.0043

Q: And the Neurog2 relative expression ([4]; ΔAsh1l B7 clone, replicate 3)?
A: 29.378

Q: And the Olig1 relative expression ([4]; ΔAsh1l B7 clone, replicate 3)?
A: 4.238

Q: And the Runx1 relative expression ([4]; ΔAsh1l B7 clone, replicate 3)?
A: 2.591
